Measured values from patent US20140329863A1 (priority 2011, published 2014).

Key:
[1] = system: PrP^Sc in dividing ScN2a-c13 cells; settings: read-out: EC50 (ELISA), reduction of PrP^Sc load; dividing ScN2a-c13 cells
[2] = Single-dose pharmacokinetic studies in female FVB mice (PO, IV, IP); type: in vivo, mouse; settings: mouse; for bioavailability / Kp: female, 10 mg/kg; for bioavailability: FVB, mice, IV 1 mg/kg, oral 10 mg/kg, read-out: oral (absolute) bioavailability; for Kp: brain and plasma, FVB mice, single oral dose, read-out: brain:plasma AUClast ratio
Description: For in-vivo pharmacokinetic studies, compounds were dissolved in a formulation containing 20% propylene glycol, 5% ethanol, 5% labrosol, and 70% polyethylene glycol 400 (PEG400) and administered by oral gavage to female FVB mice weighing ˜25 g. At specified time points after dosing (0.25, 0.5, 1, 2, 4, 6, and 24 h), 2 animals were euthanized by CO2, and ˜1 mL blood (by cardiac puncture) and brain samples were collected. The heparinized blood samples were centrifuged to obtain plasma, which was stored at −80° C. until analysis. Brain samples were weighed, diluted […] with water, and then homogenized using a Precellys 24 tissue homogenizer. Brain homogenates (20% wt/vol) were stored at −80° C. until analysis. Pharmacokinetic protocols involving animals were all reviewed and approved by the UCSF institutional animal care and use committee (IACUC).
(§1) Plasma and brain homogenate samples were extracted using a protein-precipitation method and analyzed by specific LC/MS/MS methods developed for each compound dosed in vivo. The analytical method accuracy and precision were monitored by analyzing quality control (QC) samples that were prepared and treated using the same methods as calibration standards for the plasma or brain homogenate samples.
The data were used to calculate the area under the concentration-time curve (AUClast) by noncompartmental analysis with sparse sampling performed using Phoenix WinNonlin 6.1 software (Pharsight, Mountain View, Calif.).
Pharmacokinetic protocols employing mice were reviewed and approved by the UCSF Institutional Animal Care and Use Committee (IACUC). Female FVB mice, weighing approximately 25 g, were used for all in vivo pharmacokinetic studies. Mice were housed with free access to food and water, and were maintained on 12-h light/dark cycles for 1 week before dosing studies were initiated.
For the single-dose of 40 mg/kg, compounds were dissolved in a formulation containing 5% propylene glycol, […] α-tocopheryl polyethylene glycol 1000 succinate (TPGS) and 70% polyethylene glycol 400 (PEG400), and administered by oral gavage. Two animals per time point were used. At specified time points after dosing (0.5, 1, 2, 4, 6, and 24 h), animals were euthanized by CO2, and blood for plasma (by cardiac puncture) and brain samples were collected. The heparinized blood samples were centrifuged to obtain plasma. Brain samples were weighed, diluted 10-fold with water, and then homogenized using a Precellys 24 tissue homogenizer. The brain and plasma samples were flash-frozen on dry ice and then stored at −80° C. until analysis. For the single-dose administration at 10 mg/kg, compounds were dissolved in a formulation containing 20% propylene glycol, 5% ethanol, 5% labrosol, and 70% PEG400, and administered by oral gavage. Two animals per time point were used. At specified time points after dosing (0.25, 0.5, 1, 2, 4, 6, and 24 h), animals were euthanized by CO2, and blood for plasma (by cardiac puncture) and brain samples were collected. The heparinized blood samples were centrifuged to obtain plasma. Brain samples were weighed, diluted five-fold with water, and then homogenized using a Precellys 24 tissue homogenizer. The brain and plasma samples were flash-frozen on dry ice and then stored at −80° C. until analysis.
Compounds were administered through tail vein injection. Two animals per time point were used. At specified time points after dosing (5 min, 0.25, 0.5, 1, 2, 4, and 6 h), animals were euthanized by CO2. Blood and brain samples were obtained and processed as described above for the oral dosing at 40 mg/kg.
as §1, with “by” for “and treated using”, “as” for “as calibration standards for”, “samples. […]” for “samples.”

[3] = Tolerability / toxicity on repeated dosing in mice
ScN2a-c13 cells = assay: cells; type: cell-based; settings: Mus musculus; N=3; read-out: EC50 by calcein for cell viability
[4] = Single-dose pharmacokinetics in FVB mice (oral gavage, IV); settings: for Brain exposure (AUClast) ranking: single oral dose, FVB mice
[5] = for solubility in FaSSIF (in words): fasted-state simulated intestinal fluid; for solubility at pH 2.0 (in words): pH 2 (HCl) buffer
[6] = chronic studies in mice, wide range of doses
[7] = PO 40 mg/kg, brain, female FVB mice
[8] = female, FVB, mouse, brain and plasma, po, 10 mg/kg
[9] = female, FVB, mouse, brain, po, 40 mg/kg
[10] = female, FVB, mouse, brain/plasma, po, 40 mg/kg
[11] = female, FVB, mouse, plasma, iv, 1 mg/kg
[12] = female, FVB, mouse, plasma, iv, 1 mg/kg, t1/2, IV 1 mg/kg, female FVB mice
[13] = female, FVB, mouse, plasma, po, 10 mg/kg
[14] = female, FVB, mouse, plasma, po, 40 mg/kg
[15] = female, FVB, mouse, plasma, po, 40 mg/kg, t1/2, PO 40 mg/kg, female FVB mice
[16] = IV 1 mg/kg, plasma, female FVB mice

Compound	EC50 [1] [µM]	bioavailability ([2]; plasma, po) [%]	Kp [2]	EC50 (ScN2a-c13 cells) [µM]	AUClast [4, 7] [ng·h/g]	Cmax [4, 9] [ng/g]	Tmax [4, 9] [h]	Kp [4, 10]	AUC(0-t) [4, 14] [ng·h/mL]	Cmax [4, 14] [ng/mL]	Tmax [4, 14] [h]	half-life [4, 15] [h]	solubility in FaSSIF (in words) [5]	solubility at pH 2.0 (in words) [5]	also measured
Cc1cccc(Nc2nc(-c3ccc(-c4ccccc4)cc3)cs2)n1 [IND24, (4-Biphenyl-4-yl-thiazol-2-yl)-(6-methyl-pyridin-2-yl)-amine]	1.27	40	2.6	> 10	9998 ± 417	840 ± 252	4	2.61	3830 ± 450	569 ± 38.1	2	4.65	–	–	bioavailability ([2]; plasma, oral): 27 to 40%; half-life ([2]; plasma, female FVB mice, 1 mg/kg IV): 2 h; tolerability [3, 6]: well tolerated; Kp [4, 8]: 2.6; AUC(0-t) [4, 11]: 953 ± 374 ng·h/mL; Cmax [4, 11]: 856 ± 908 ng/mL; Tmax [4, 11]: 0.083 h; half-life ([4]; female, FVB, mouse, plasma, iv, 1 mg/kg, Half-life, 1 mg/kg IV, female FVB mice): 2 h; half-life [4, 12]: 2.15 h; bioavailability [4, 13]: 40%; bioavailability [4, 14]: 40.2%; Brain exposure (AUClast) ranking ([4]; brain): highest AUC values in brain
Cc1ccc(Nc2nc(-c3cc(-c4ccccc4)no3)cs2)nc1 [IND33, (5-Methyl-pyridin-2-yl)-[4-(3-phenyl-isoxazol-5-yl)-thiazol-2-yl]-amine]	–	–	–	–	–	–	–	–	–	–	–	–	higher solubility	lower	–
COc1ccc(-c2csc(Nc3ccc4ccccc4n3)n2)cc1OC [IND47, [4-(3,4-Dimethoxy-phenyl)-thiazol-2-yl]-quinolin-2-yl-amine]	–	–	–	–	–	–	–	–	–	–	–	–	lower solubility	lower solubility	–
Cc1ccnc(Nc2nc(-c3ccncc3)cs2)c1 [IND52, (4-Methyl-pyridin-2-yl)-(4-pyridin-4-yl-thiazol-2-yl)-amine]	4.95	–	–	> 10	–	–	–	–	–	–	–	–	–	–	–
Cc1ccnc(Nc2nc(-c3ccc(-c4ccccn4)s3)cs2)c1 [IND81, (4-Methyl-pyridin-2-yl)-[4-(5-pyridin-2-yl-thiophen-2-yl)-thiazol-2-yl]-amine]	–	25 to 27	5.5	> 10	1592 ± 794	568 ± 186	0.5	5.53	288 ± 136	152 ± 10.6	0.5	0.97	lower solubility	higher solubility	bioavailability ([2]; plasma, oral): 27 to 40%; tolerability [3, 6]: well tolerated; Kp [4, 8]: 5.5; AUC(0-t) [4, 11]: 106 ± 12.4 ng·h/mL; Cmax [4, 11]: 183 ± 96.6 ng/mL; Tmax [4, 11]: 0.083 h; half-life [4, 12]: 1.17 h; bioavailability [4, 13]: 25 to 27%; bioavailability [4, 14]: 27.2%; Brain exposure (AUClast) ranking ([4]; brain): highest AUC values in brain
c1ccc2cc(Nc3nc(-c4ccncc4)cs3)ncc2c1 [IND85, Isoquinolin-3-yl-(4-pyridin-4-yl-thiazol-2-yl)-amine]	–	–	–	–	–	–	–	–	–	–	–	–	lower solubility	higher solubility	Brain Cmax/EC50 ratio, 40 mg/kg ([4]; single oral dose 40 mg/kg): better Cmax:EC50 ratio at either dose
C(=N\Nc1ccc(-c2cnco2)cc1)/c1ccncc1 [IND54304, reference compound]	0.4	25 to 27	0.5	–	282 ± 27.2	123 ± 42.7	2	0.52	544 ± 16.8	220 ± 99.4	0.5	1	–	–	tolerability ([3]; 25, 50, 100, 150 mg/kg for 3 days in liquid diet): tolerated; animals dying ([3]; ≧150 mg/kg/day for 8 days): 2/4; AUClast [4, 16]: 219 ± 33.0 ng·h/mL; Cmax [4, 16]: 466 ± 37.4 ng/mL; Tmax [4, 16]: 0.083 h; t1/2 [4, 16]: 0.21 h; % F ([4]; PO 40 mg/kg vs IV 1 mg/kg, plasma, female FVB mice): 24.8%
